The text below walks through data of PubChem BioAssay AID1259352.

Broadly, the EC50 is the concentration needed to bring the measured effect to its halfway point.

The experiment has as its system C. elegans N2 L1 growth, INVAPP movement imaging, 5 d. In words: C. elegans larval growth inhibition, dose response, whole organism, N2 L1 worms, INVAPP movement imaging (AID 1259352).
With `CNc1nc(NCCOc2ccccc2)c2sccc2n1`, the EC50 was 82 µM.
Turning to `COCCNc1nc(NCCOc2ccccc2Cl)c2sccc2n1`, the concentration for a half-maximal effect (EC50) is 87 µM.
Regarding `COc1ccccc1CNc1nc(NCCOc2ccccc2Cl)c2sccc2n1`, the EC50 is 7 µM.
Then `CNc1nc(NCCOc2ccccc2Cl)c2sccc2n1`, with 11 µM.
